Assay: xn = mol fraction of the nth substance listed
Conditions: 101 kPa, Liquid; for speed of sound: Sing-around technique in a fixed-path interferometer; for mass density: Vibrating tube method

NCCNCCN [di(2-aminoethyl)amine] + CC(C)O
Conditions | mass density [kg/m3] | speed of sound [m/s] | viscosity [mPa·s]
293.15 K, x1 = 0.0534 | 803.892 | 1206.4 | –
293.15 K, x1 = 0.1022 | 818.972 | 1244.9 | –
293.15 K, x1 = 0.1556 | 830.953 | 1283.2 | –
293.15 K, x1 = 0.2053 | 842.389 | 1318.6 | –
293.15 K, x1 = 0.2541 | 852.667 | 1350.5 | –
293.15 K, x1 = 0.3083 | 863.147 | 1383.9 | –
293.15 K, x1 = 0.4044 | 880.002 | 1438.7 | –
293.15 K, x1 = 0.5025 | 894.43 | 1488.6 | –
293.15 K, x1 = 0.6122 | 909.336 | 1538.2 | –
293.15 K, x1 = 0.711 | 921.252 | 1583.2 | –
293.15 K, x1 = 0.8021 | 930.895 | 1618.9 | –
293.15 K, x1 = 0.8555 | 936.343 | 1638 | –
293.15 K, x1 = 0.9092 | 941.621 | 1658.5 | –
293.15 K, x1 = 0.953 | 945.719 | 1673.3 | –
298.15 K, x1 = 0.0532 | – | – | 2.514
298.15 K, x1 = 0.0534 | 799.63 | 1188.7 | –
298.15 K, x1 = 0.1022 | 814.391 | 1227.2 | 2.884
298.15 K, x1 = 0.1556 | 826.675 | 1265.5 | 3.313
298.15 K, x1 = 0.2053 | 838.104 | 1300.9 | 3.628
298.15 K, x1 = 0.2541 | 848.377 | 1332.6 | 3.97
298.15 K, x1 = 0.3083 | 858.864 | 1365.9 | 4.268
298.15 K, x1 = 0.4044 | 875.743 | 1420.7 | 4.708
298.15 K, x1 = 0.5025 | 890.185 | 1470 | 4.984
298.15 K, x1 = 0.6122 | 905.106 | 1518.9 | 5.192
298.15 K, x1 = 0.711 | 917.035 | 1563.1 | 5.223
298.15 K, x1 = 0.8021 | 926.667 | 1599.5 | 5.286
298.15 K, x1 = 0.8555 | 932.115 | 1618.5 | 5.383
298.15 K, x1 = 0.9092 | 937.389 | 1638.7 | 5.441
298.15 K, x1 = 0.953 | 941.486 | 1653.4 | 5.54
303.15 K, x1 = 0.0532 | – | – | 2.087
303.15 K, x1 = 0.0534 | 795.321 | 1171.2 | –
303.15 K, x1 = 0.1022 | 809.803 | 1209.5 | 2.388
303.15 K, x1 = 0.1556 | 822.362 | 1247.7 | 2.697
303.15 K, x1 = 0.2053 | 833.79 | 1282.9 | 2.976
303.15 K, x1 = 0.2541 | 844.065 | 1314.6 | 3.217
303.15 K, x1 = 0.3083 | 854.559 | 1347.8 | 3.423
303.15 K, x1 = 0.4044 | 871.471 | 1402.2 | 3.721
303.15 K, x1 = 0.5025 | 885.922 | 1452.9 | 3.901
303.15 K, x1 = 0.6122 | 900.866 | 1503.2 | 4.08
303.15 K, x1 = 0.711 | 912.782 | 1543 | 4.184
303.15 K, x1 = 0.8021 | 922.433 | 1579.1 | 4.264
303.15 K, x1 = 0.8555 | 927.887 | 1599 | 4.357
303.15 K, x1 = 0.9092 | 933.158 | 1619 | 4.423
303.15 K, x1 = 0.953 | 937.25 | 1634.5 | 4.47
308.15 K, x1 = 0.0532 | – | – | 1.858
308.15 K, x1 = 0.0534 | 790.957 | 1153.7 | –
308.15 K, x1 = 0.1022 | 805.422 | 1191.8 | 2.064
308.15 K, x1 = 0.1556 | 818.019 | 1230 | 2.315
308.15 K, x1 = 0.2053 | 829.45 | 1265.1 | 2.526
308.15 K, x1 = 0.2541 | 839.731 | 1296.8 | 2.708
308.15 K, x1 = 0.3083 | 850.238 | 1329.7 | 2.875
308.15 K, x1 = 0.4044 | 867.103 | 1383.3 | 3.121
308.15 K, x1 = 0.5025 | 881.653 | 1432.7 | 3.296
308.15 K, x1 = 0.6122 | 896.616 | 1483.5 | 3.442
308.15 K, x1 = 0.711 | 908.535 | 1525.3 | 3.539
308.15 K, x1 = 0.8021 | 918.202 | 1561.5 | 3.608
308.15 K, x1 = 0.8555 | 923.66 | 1580.4 | 3.683
308.15 K, x1 = 0.9092 | 928.927 | 1599.6 | 3.734
308.15 K, x1 = 0.953 | 933.022 | 1615.1 | 3.771
313.15 K, x1 = 0.0534 | 786.529 | 1136.1 | –
313.15 K, x1 = 0.1022 | 801.012 | 1174.3 | –
313.15 K, x1 = 0.1556 | 813.627 | 1212.7 | –
313.15 K, x1 = 0.2053 | 825.068 | 1247.5 | –
313.15 K, x1 = 0.2541 | 835.36 | 1278.6 | –
313.15 K, x1 = 0.3083 | 845.885 | 1311.4 | –
313.15 K, x1 = 0.4044 | 862.786 | 1365.6 | –
313.15 K, x1 = 0.5025 | 877.353 | 1415.7 | –
313.15 K, x1 = 0.6122 | 892.409 | 1467 | –
313.15 K, x1 = 0.711 | 904.278 | 1509.1 | –
313.15 K, x1 = 0.8021 | 913.964 | 1543.4 | –
313.15 K, x1 = 0.8555 | 919.421 | 1562.1 | –
313.15 K, x1 = 0.9092 | 924.691 | 1580.8 | –
313.15 K, x1 = 0.953 | 928.787 | 1595.2 | –

— the NIST ThermoML archive (doi:10.1016/j.tca.2011.06.003)
